Data reported in the NIST ThermoML archive (doi:10.1016/j.tca.2015.02.014).

Experiment: mn = molality of the nth substance listed, in mol/kg
Conditions: 100 kPa, Liquid; for viscosity: Capillary tube (Ostwald / Ubbelohde) method; for speed of sound: Frequency=3 MHz, Sing-around technique in a fixed-path interferometer; for mass density: Vibrating tube method

C[C@H](CCC(=O)[O-])[C@H]1CC[C@H]2[C@@H]3[C@H](O)C[C@@H]4C[C@H](O)CC[C@]4(C)[C@H]3C[C@H](O)[C@]12C.[Na+] [sodium cholate] + O
Conditions | mass density, 308.15 K [kg/m3] | mass density, 313.15 K [kg/m3] | mass density, 318.15 K [kg/m3] | speed of sound, 308.15 K [m/s] | speed of sound, 313.15 K [m/s] | speed of sound, 318.15 K [m/s] | viscosity, 308.15 K [mPa·s] | viscosity, 313.15 K [mPa·s] | viscosity, 318.15 K [mPa·s]
m1 = 0.001 | 994.145 | 992.351 | 990.351 | 1520.2 | 1529.3 | 1536.9 | 0.7202 | 0.6535 | 0.5973
m1 = 0.002 | 994.255 | 992.449 | 990.445 | 1520.5 | 1529.6 | 1537.2 | 0.7212 | 0.6544 | 0.5985
m1 = 0.003 | 994.348 | 992.547 | 990.539 | 1520.7 | 1529.8 | 1537.3 | 0.7225 | 0.6556 | 0.5997
m1 = 0.004 | 994.455 | 992.655 | 990.629 | 1520.9 | 1530 | 1537.5 | 0.7241 | 0.6571 | 0.6013
m1 = 0.006 | 994.7 | 992.873 | 990.864 | 1521.4 | 1530.4 | 1537.9 | 0.7265 | 0.6595 | 0.6035
m1 = 0.008 | 994.885 | 993.087 | 991.051 | 1522 | 1530.9 | 1538.3 | 0.7295 | 0.662 | 0.6062
m1 = 0.01 | 995.101 | 993.304 | 991.257 | 1522.4 | 1531.3 | 1538.7 | 0.7323 | 0.6648 | 0.609
m1 = 0.014 | 995.521 | 993.711 | 991.671 | 1523.4 | 1532.3 | 1539.5 | 0.7415 | 0.6722 | 0.6161
m1 = 0.018 | 995.957 | 994.126 | 992.088 | 1524.2 | 1533.1 | 1540.4 | 0.7461 | 0.6772 | 0.6201
m1 = 0.022 | 996.357 | 994.505 | 992.491 | 1525 | 1533.9 | 1541.2 | 0.7509 | 0.6813 | 0.6245
m1 = 0.026 | 996.744 | 994.935 | 992.905 | 1525.8 | 1534.6 | 1541.9 | 0.7561 | 0.6865 | 0.6291
m1 = 0.03 | 997.176 | 995.354 | 993.313 | 1526.4 | 1535.2 | 1542.5 | 0.7619 | 0.6918 | 0.6328
